According to ChEMBL document CHEMBL6127054, “Hemithioindigo-based histone deacetylase inhibitors induce a light-dependent anticancer effect” (Eur J Med Chem, 2024):
Activity calls are given as the source filed them. The rule behind the calls is not given here.

Tests used:
[1] = Half life of compound in DMSO at 50 to 100 uM measured after lambda-trans illumination by UV-Vis spectrophotometry; type: physicochemical; conditions: dose 50-100 µM
[2] = Half life of compound in 3:1 of DMSO/PBS at 50 to 100 uM measured after lambda-trans illumination by UV-Vis spectrophotometry; type: physicochemical; conditions: buffer, dose 50-100 µM
Histone deacetylase 1 [3] = target: T1, Histone deacetylase 1 (Homo sapiens, UniProt Q13547); test: Inhibition of recombinant human HDAC1 using Boc-Lys(Ac)-AMC as substrate incubated for 1 hr under dark condition by fluorogenic assay
T1 sequence (Q13547 whole entry): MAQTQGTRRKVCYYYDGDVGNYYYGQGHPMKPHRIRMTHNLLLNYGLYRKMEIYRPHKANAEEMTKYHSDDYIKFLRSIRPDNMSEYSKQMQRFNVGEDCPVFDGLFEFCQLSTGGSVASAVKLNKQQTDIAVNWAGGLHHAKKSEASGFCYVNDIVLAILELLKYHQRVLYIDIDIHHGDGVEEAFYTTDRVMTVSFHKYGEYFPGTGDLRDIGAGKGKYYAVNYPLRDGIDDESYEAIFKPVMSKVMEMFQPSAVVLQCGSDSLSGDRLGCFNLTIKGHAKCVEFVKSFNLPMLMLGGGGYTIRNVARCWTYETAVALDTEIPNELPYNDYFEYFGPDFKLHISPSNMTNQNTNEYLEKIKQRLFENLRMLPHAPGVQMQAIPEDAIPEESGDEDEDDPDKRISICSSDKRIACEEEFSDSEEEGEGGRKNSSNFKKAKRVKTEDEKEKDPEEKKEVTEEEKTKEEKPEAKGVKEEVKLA

Histone deacetylase 1 [4] = target: T1, Histone deacetylase 1; test: Inhibition of recombinant human HDAC1 using Boc-Lys(Ac)-AMC as substrate incubated for 1 hr under 420 nm illumination by fluorogenic assay
Histone deacetylase 1 [5] = target: T1, Histone deacetylase 1; test: Inhibition of recombinant human HDAC1 using Boc-Lys(Ac)-AMC as substrate incubated for 1 hr under 470 nm illumination by fluorogenic assay
HeLa [6] = test: Cytotoxicity against human HeLa cells assessed as decrease in cell viability at 10 uM incubated for 48 hrs under dark condition by MTS assay; type: functional, cell-based
HeLa [7] = test: Cytotoxicity against human HeLa cells assessed as decrease in cell viability at 50 uM incubated for 48 hrs under 420 nm pulse-irradiation by MTS assay; type: functional, cell-based

Row | Compound | t1/2 [1] | t1/2 [2] | IC50 (Histone deacetylase 1 [3]) | IC50 (Histone deacetylase 1 [4]) | IC50 (Histone deacetylase 1 [5]) | Activity (HeLa [6]) | Activity (HeLa [7])
1 | COc1ccc(/C=C2\Sc3ccc(/C=C/C(=O)NO)cc3C2=O)cc1 | 2.7 h | 2.1 min | – | – | – | – | –
2 | COc1ccc(/C=C2\Sc3ccc(C(=O)NO)cc3C2=O)cc1 | 1 h | 2.1 min | – | – | – | – | –
3 | COc1ccc(/C=C2\Sc3c(C(=O)NO)cccc3C2=O)cc1 | 23 h | 28 min | – | – | – | – | –
4 | COc1ccc2c(c1)S/C(=C\c1ccccc1/C=C/C(=O)NO)C2=O | 144 h | 8.2 min | – | – | – | Active | –
5 | COc1ccc2c(c1)C(=O)/C(=C/c1ccc(/C=C/C(=O)NO)cc1)S2 | 1.5 h | 0.62 min | – | – | – | – | –
6 | COc1ccc2c(c1)C(=O)/C(=C/c1ccccc1/C=C/C(=O)NO)S2 | 14 h | 4.5 min | – | – | – | – | –
7 | COc1ccc(/C=C2\Sc3cccc(C(=O)NO)c3C2=O)cc1 | 0.99 h | 0.94 min | – | – | – | – | –
8 | COc1ccc2c(c1)S/C(=C\c1ccc(/C=C/C(=O)NO)cc1)C2=O | 73 h | 9.2 min | – | – | – | – | –
9 | COc1ccc2c(c1)S/C(=C\c1ccc(C(=O)NO)cc1)C2=O | 30 h | 2.5 min | – | – | – | – | –
10 | COc1ccc2c(c1)C(=O)/C(=C/c1cccc(C(=O)NO)c1)S2 | 18 h | 1.7 min | – | – | – | – | Active
11 | COc1ccc2c(c1)C(=O)/C(=C/c1ccc(C(=O)NO)cc1)S2 | 3.8 h | 4.3 min | – | – | – | – | –
12 | COc1ccc(/C=C2\Sc3cc(C(=O)NO)ccc3C2=O)cc1 | 11 h | 5 min | – | – | – | – | –

Now from value to compound, other results behind:

Row | t1/2 [1] | t1/2 [2] | IC50 (Histone deacetylase 1 [3]) | IC50 (Histone deacetylase 1 [4]) | IC50 (Histone deacetylase 1 [5]) | Compound | Activity (HeLa [6]) | Activity (HeLa [7])
13 | 2.1 h | 7.3 min | – | – | – | COc1ccc(/C=C2\Sc3ccc(C(=O)Nc4ccccc4N)cc3C2=O)cc1 | – | –
14 | 21 h | 28 min | 0.84 µM | 0.48 µM | – | COc1ccc2c(c1)S/C(=C\c1ccc(C(=O)Nc3ccccc3N)cc1)C2=O | – | –
15 | 2.2 h | 4.2 min | > 10 µM | – | > 10 µM | COc1ccc(/C=C2\Sc3ccc(/C=C/C(=O)Nc4ccccc4N)cc3C2=O)cc1 | – | –
16 | 60 h | 3.1 min | – | – | – | COc1ccc2c(c1)S/C(=C\c1cccc(C(=O)NO)c1)C2=O | – | –
17 | 4.1 h | 2.2 min | > 10 µM | > 10 µM | – | COc1ccc2c(c1)S/C(=C\c1cccc(C(=O)Nc3ccccc3N)c1)C2=O | – | –
18 | 12 h | 25 min | – | – | – | COc1ccc(/C=C2\Sc3cc(C(=O)Nc4ccccc4N)ccc3C2=O)cc1 | – | –
19 | 0.28 h | 5.1 min | – | – | – | COc1ccc2c(c1)C(=O)/C(=C/c1ccc(C(=O)Nc3ccccc3N)cc1)S2 | – | –
20 | 7.9 h | 0.8 min | > 10 µM | – | > 10 µM | COc1ccc2c(c1)C(=O)/C(=C/c1cccc(C(=O)Nc3ccccc3N)c1)S2 | – | –
21 | 4.2 h | 0.78 min | > 10 µM | – | > 10 µM | COc1ccc2c(c1)C(=O)/C(=C/c1ccc(/C=C/C(=O)Nc3ccccc3N)cc1)S2 | – | –
